Read-outs that look alike come from different tables or passages of the source.
Experiments:
[1] = system: P. falciparum (strain 3D7); assay: 72 h 3H-hypoxanthine incorporation assay, asexual blood stages; format: cell-based, Plasmodium falciparum; conditions: Plasmodium falciparum
[2] = cytotoxicity on HeLa cells; format: cell-based; conditions: human, HeLa cells
Procedure: (§1) Compounds were tested for their antiproliferative activity on HUVEC and K-562 cells and for cytotoxicity on HeLa cells using standard protocols. K-562 (DSM ACC 10), HUVEC (ATCC CRL-1730), and HeLa (DSM ACC 57) cells were cultured as described previously. To assay the antiproliferative and cytotoxic effect, procedures were carried out as described before. In brief, for each experiment with K-562 and HeLa ∼10,000 cells were seeded per well of the 96-well microplates. For the cytotoxicity assay, the HeLa cells were preincubated for 48 h without the test substances. Cells were incubated for 72 h at 37 °C in a humidified atmosphere and 5% CO2. Suspension cultures of K-562 in microplates were analysed by an electronic cell analyzer system CASY 1 (SCHÄRFE, Reutlingen, Germany). The monolayer of the HUVEC and HeLa cells were fixed by glutaraldehyde (MERCK) and stained with a 0.05% solution of methylene blue (SERVA). After gently washing, the stain was eluted by 0.2 ml of 0.33 N HCl in the wells. The optical densities were measured at 660 nm in a microplate reader. The calculations of the different values of GI50 and CC50 were performed with the software Magellan (TECAN).

HUVEC = assay: antiproliferative activity on HUVEC cells; format: cell-based; conditions: Homo sapiens, HUVEC, 72 h
Procedure: as §1

K-562 = assay: antiproliferative activity on K-562 cells; format: cell-based; conditions: Homo sapiens, K562, 72 h
Procedure: as §1

haem = assay: ESI-MS collision-induced dissociation of haem adducts; format: binding; conditions: 50 µM haem and 50 µM substrate; for DV50 (dissociation voltage at 50%) of haem adduct: ESI-CID, 20 V to 400 V; for Bottom plateau (adduct remaining at 400 V): fragmentor voltage 400 V
Procedure: Compound Molar Adduct DV50 Bottom Dissociation mass [Haem+S] (V) plateau Constant
Supplementary Table 7. ESI-MS-CID data (m/z, calculated DV50 = dissociation voltage at 50% and % bottom plateau) of the [haematin-drug]+ adducts and dissociation constants (KD, µM) of the haematin-drug complexes measured with absorption spectrophotometric titrations.
Conditions: 50 µM haem and 50 µM substrate in H2O/CH3CN (5/95) + 0.1% formic acid.
Stability responses of the haem substrate adduct were obtained via ESI-CID experiments.
Positive mode; fragmentor voltage from 20 V to 400 V with 20 V increments. […]
- 41/120 g), and complete dissolution was achieved using an ultrasonic bath. All solutions were protected from daylight to avoid any photochemical degradation. All the physiochemical measurements were carried out at 25.0(2) °C. […]
Electrospray mass spectrometric measurements stopping point
Electrospray mass spectra of the haem complexes were obtained with an Agilent Technologies 6120 quadrupole equipped with an electrospray (ESI) interface. For

[3] = 3D7, 72 h 3H-hypoxanthine incorporation, asexual blood stages, read-out: Antiplasmodial activity IC50 Pf (3D7)
[4] = 3D7, non-steroid-derived analogs, read-out: IC50 on P. falciparum 3D7 asexual blood stages

`COc1ccc2c(c1)CCC1C2CC[C@@]2(C)C1CC[C@@H]2NCc1cc(Cl)ccc1O` (some centres unmarked) [2s] gave an IC50 [1, 3] of 62 nM.

With `Oc1cc2ccccc2cc1/C=N/c1ccc2ccc3cccc4ccc1c2c34` [20n] the IC50 [1, 3] was > 13000 nM.

`COc1ccc2c(c1)CCC1C2CC[C@@]2(C)C1C[C@@H](NCc1cc(Cl)ccc1O)[C@@H]2O` (some centres unmarked) [7s] showed an IC50 [1, 3] of 55 nM.

With `COc1ccc2c(c1)CCC1C2CC[C@@]2(C)C1C[C@H](/N=C/c1ccccc1O)[C@@H]2O` (some centres unmarked) [8b] the IC50 [1, 3] was > 2500 nM.

Work on `COc1ccc2c(c1)CCC1C2CC[C@@]2(C)C1CC[C@@H]2NCc1cccc(O)c1` (some centres unmarked) [2e] yielded an IC50 [1, 3] of 741 nM.

In the case of `COc1ccc2c(c1)CCC1C2CC[C@@]2(C)C1CC[C@@H]2NCc1cc([N+](=O)[O-])ccc1O` (some centres unmarked) [2u], the IC50 [1, 3] is reported as 114 nM.

For `COc1ccc2c(c1)CCC1C2CC[C@]2(C)C[C@@H](N)CC12` (some centres unmarked) [4a], the IC50 [1, 3] was > 1000 nM.

With `COc1ccc2c(c1)CCC1C2CC[C@]2(C)C[C@H](NCc3ccccc3O)CC12` (some centres unmarked) [3c] the CC50 at 72 h [2] was 20700 nM, the IC50 [1, 3] was 42 nM and the GI50 (HUVEC) was 4100 nM. It also gave a GI50 (K-562) of 3800 nM.

For `CCN(CC)Cc1cc(Nc2ccnc3cc(Cl)ccc23)ccc1O` [amodiaquine, reference compound], the “DV50 (dissociation voltage at 50%) of haem adduct” value (from here on “DV50 (dissociation voltage at 50%)”) (haem) was 212 V and the “Bottom plateau (adduct remaining at 400 V)” value (haem) was 7%.

`COc1ccc2c(c1)CCC1C2CC[C@@]2(C)C1C[C@H](NCc1cc(C(C)(C)C)cc(C(C)(C)C)c1O)[C@H]2O` (some centres unmarked) [6w] gave an IC50 [1, 3] of 1620 nM.

With `Oc1ccccc1CNC1CCCC1` [15c] the IC50 [1, 4] was > 6000 nM.

With `C=CC1=C(C)c2cc3[n-]c(cc4[n-]c(cc5nc(cc1n2)C(C)=C5C=C)c(C)c4CCC(=O)O)c(CCC(=O)O)c3C.O.[Fe+2]` [hematin, reference compound] the “DV50 (dissociation voltage at 50%)” value (haem) was 329 V and the “Bottom plateau (adduct remaining at 400 V)” value (haem) was ~ 28%.

For `COc1ccc2c(c1)CCC1C2CC[C@]2(C)C[C@H](N)CC12` (some centres unmarked) [3a], the IC50 [1, 3] was > 1000 nM.

`COc1ccc2c(c1)CCC1C2CC[C@]2(C)C1C[C@@H](NCc1ccccc1O)[C@@H]2O` (some centres unmarked) [10c] showed a CC50 at 72 h [2] of 11500 nM, an IC50 [1, 3] of 84 nM and a GI50 (HUVEC) of 2900 nM. It also gave a GI50 (K-562) of 2500 nM.

With `CCN(CC)c1ccc(CN[C@H]2CCC3C4CCc5cc(OC)ccc5C4CC[C@@]32C)c(O)c1` (some centres unmarked) [2q] the IC50 [1, 3] was 713 nM.

Work on `COc1ccc2c(c1)CCC1C2CC[C@]2(C)C1C[C@H](NCc1ccccc1O)[C@@H]2O` (some centres unmarked) [11c] yielded a CC50 at 72 h [2] of 6400 nM, an IC50 [1, 3] of 141 nM and a GI50 (HUVEC) of 22000 nM. It also gave a GI50 (K-562) of 100 nM.

In the case of `Oc1ccccc1/C=N/c1ccc2ccc3cccc4ccc1c2c34` [20b], the IC50 [1, 3] is reported as > 15000 nM.

`COc1ccc(CNC2CCC3C4CCc5cc(OC)ccc5C4CCC23C)cc1` (centres unmarked) [1k] gave an IC50 [1, 3] of 1010 nM.

For `COc1ccc2c(c1)CCC1C2CC[C@@]2(C)C1C[C@@H](NCc1cc(Cl)ccc1O)[C@H]2O` (some centres unmarked) [5s], the IC50 [1, 3] was 99 nM.

Work on `COc1ccc2c(c1)CCC1C2CC[C@@]2(C)C1C[C@H](NCc1ccccc1O)[C@H]2O` (some centres unmarked) [6c] yielded a CC50 at 72 h [2] of 11300 nM, an IC50 [1, 3] of 676 nM and a GI50 (HUVEC) of 4400 nM. It also gave a GI50 (K-562) of 2500 nM.

With `COc1ccc2c(c1)CCC1C2CC[C@@]2(C)C1CC[C@H]2N` (some centres unmarked) [1a] the IC50 [1, 3] was > 1000 nM, the “DV50 (dissociation voltage at 50%)” value (haem) was 218 V and the “Bottom plateau (adduct remaining at 400 V)” value (haem) was 1.2%.

In the case of `Oc1ccccc1CNc1ccccc1` [19c], the IC50 [1, 4] is reported as > 15000 nM.

— publication PMC5321741, “Arylmethylamino steroids as antiparasitic agents” (Nature Communications, 2017)
